According to publication PMC4257560, “Synthesis and Functional Characterization of Substituted Isoquinolinones as MT2-Selective Melatoninergic Ligands” (PLoS ONE, 2014):
Like-named read-outs stand apart in the source and are kept apart here. Marks after values point to notes of the source that are not given here.

Key:
[1] = target: T1, MT2 (Homo sapiens, UniProt P49286)
T1 sequence (P49286 1-362): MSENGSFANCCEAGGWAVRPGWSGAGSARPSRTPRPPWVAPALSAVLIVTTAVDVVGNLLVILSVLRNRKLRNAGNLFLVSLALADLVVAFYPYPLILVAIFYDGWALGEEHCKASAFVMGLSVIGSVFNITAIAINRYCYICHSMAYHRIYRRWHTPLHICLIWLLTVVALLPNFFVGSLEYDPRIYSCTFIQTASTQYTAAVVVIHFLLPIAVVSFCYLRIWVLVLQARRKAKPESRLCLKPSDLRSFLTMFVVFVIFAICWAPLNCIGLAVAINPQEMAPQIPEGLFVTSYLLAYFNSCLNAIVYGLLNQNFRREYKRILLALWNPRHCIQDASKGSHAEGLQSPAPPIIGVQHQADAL
Experimental: (§8) Competitive receptor binding characteristics of melatonin and the 15 tested compounds towards human MT1 and MT2 stably expressed in Chinese hamster ovary (CHO) cells were determined using intact cell preparation pre-incubated with 1 nM [^3H]melatonin.
(§9) Individual melatonin receptor subtype (either MT1 or MT2) was stably co-expressed with a G protein chimera 16z25 in Chinese hamster ovary (CHO) cells, hereafter denoted as CHO-hMT1 and CHO-hMT2, respectively. […] Single cell-derived colonies of the stable lines with sufficiently high receptor density and robust responses in the fluorometric assay (as described below) were isolated from the pool of transfected cell. Usage of these clonal lines was limited to 15 passages to prevent degradation of signal detection.
(§10) Competitive binding assays were performed as described [26]. Cells were suspended in binding buffer (50 mM Tris, 2 mM MgCl2, 1 mM EGTA, pH 7.4) in the density of 1.5×10^5 cell/ml. 1 nM [^3H]melatonin and increasing concentrations of a tested compound was included. Cells were incubated at 4°C for 60 min with intermittent agitation and the reaction was stopped by rapid filtration through GF/C filters pre-soaked in 10 mM Tris, pH 7.4 and washed with 1 ml of prechilled binding buffer. Retained radioactivity was measured with Wallac 1450 Microbeta Jet scintillation counter. Competition curves were drawn as one-site competition nonlinear regression model using GraphPad Prism 3.03 to the data which were means ± SEM of 3–4 independent experiments performed in duplicates. In every assay, melatonin was included as standard reference with highly reproducible Ki values, which were calculated using the Cheng-Prusoff equation.

[2] = target: T2, MT1 (Homo sapiens, UniProt P48039); experiment: biochemical; conditions: for Emax: read-out: MT1 %Resp±SEM (percentage of melatonin-mediated displacement of radioligand binding)
T2 sequence (P48039 whole entry): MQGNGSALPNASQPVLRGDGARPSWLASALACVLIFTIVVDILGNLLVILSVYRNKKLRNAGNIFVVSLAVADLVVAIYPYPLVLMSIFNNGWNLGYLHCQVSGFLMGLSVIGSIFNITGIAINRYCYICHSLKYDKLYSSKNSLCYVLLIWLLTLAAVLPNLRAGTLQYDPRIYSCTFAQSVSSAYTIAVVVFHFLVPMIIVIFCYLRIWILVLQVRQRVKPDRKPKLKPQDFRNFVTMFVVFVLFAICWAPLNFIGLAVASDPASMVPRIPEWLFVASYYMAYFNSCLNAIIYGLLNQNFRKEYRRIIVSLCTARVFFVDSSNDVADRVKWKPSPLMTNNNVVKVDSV
Experimental: as §8, §9, §10

[3] = target: T1, MT2; experiment: biochemical; conditions: for Ki: MT2 Ki, calculated from mean pIC50 (Cheng-Prusoff), 1 nM [3H]melatonin, intact CHO cells; for Emax: read-out: MT2 %Resp±SEM (percentage of melatonin-mediated displacement of radioligand binding)
Experimental: as §8, §9, §10

[4] = target: T2, MT1; experiment: Intracellular Ca2+ mobilization (FLIPR) in MT1-CHO cells co-expressing 16z25; assay type: cell-based; set-up: expressed in transfected cells; conditions: for MT1 %Resp ±SEM, Ca2+ signal: percentage of melatonin (MT)-mediated stimulation of Ca2+ signal
Experimental: (§1) Tested compounds in different concentrations were diluted in assay buffer in 5× of the final desired concentrations in a V-bottomed microplate, and both the cell and compound plates were put into the fluorometric imaging plate reader FLIPR^TETRA (Molecular Devices, Sunnyvale, CA). […] The peak of the time course of fluorescence changes was expressed in relative fluorescence units (RFU). Dose response curves were constructed by non-linear regression using GraphPad Prism 3.

[5] = target: T1, MT2; experiment: Intracellular Ca2+ mobilization (FLIPR) in MT2-CHO cells co-expressing 16z25; assay type: cell-based; set-up: expressed in transfected cells; conditions: for EC50 / Ca2+ mobilization activity at MT2 (in words) / MT2 EC50, Ca2+ mobilization: MT2-CHO cells, FLIPR; for Emax: MT2, percentage of melatonin (MT)-mediated stimulation of Ca2+ signal, read-out: MT2 %Resp ±SEM, Ca2+ signal; for shift of melatonin dose-response curve in FLIPR assay, MT2-CHO (competitive antagonism): preincubation with 10 µM or 1 µM of 7e or 7f
Experimental: as §1

[6] = target: T2, MT1; experiment: Inhibition of forskolin-stimulated cAMP accumulation in MT1-CHO cells; assay type: cell-based; set-up: expressed in transfected cells
Experimental: (§2) Both MT1 and MT2 are classified as Gi-coupled receptors with their activation leading to inhibition of intracellular cAMP production. The ability of the tested compounds to activate the endogenously expressed Gi-mediated inhibition of cAMP production was therefore examined.
(§3) All the responses were expressed as the percentage of that induced by forskolin alone (as 100%).
(§4) 2×10^5 cells were seeded in each well of 12-well plates and grown for overnight. Each well was labeled with 1 ml of [^3H]adenine (1 µCi/ml) in F-12K medium containing 1% FBS (vol/vol) for overnight. The labeling media were then replaced by 1 ml of 20 mM HEPES-buffered F-12K containing 1 mM isobutylmethylxanthine (IBMX) and the tested compounds at desired concentrations, and incubated at 37°C for 30 min. The reaction was stopped by aspiration and adding 1 ml prechilled 5% trichloroacetic acid (w/v) with 1 mM ATP, and stored at 4°C for 30 min. [^3H]cAMP was extracted from the pool of labeled adenosine nucleotides by sequential ion-exchange chromatography as previously described. The radioactivity of labeled cAMP and total labeled nucleotide fractions separated by chromatography were estimated by scintillation counting. Inhibition curves were constructed by non-linear regression using GraphPad Prism 3.

[7] = target: T1, MT2; experiment: Inhibition of forskolin-stimulated cAMP accumulation in MT2-CHO cells; assay type: cell-based; set-up: expressed in transfected cells; conditions: for IC50: MT2-CHO cells, 50 µM forskolin
Experimental: as §2, §3, §4

[8] = target: T2, MT1; experiment: Immunodetection of ERK phosphorylation in MT1-CHO cells; assay type: cell-based; set-up: expressed in transfected cells; conditions: for concentration inducing weak ERK phosphorylation in MT1-CHO cells: immunoblot
Experimental: (§5) CHO cells expressing MT1 or MT2 were serum-starved before treating with the indicated concentrations of melatonin or individual tested compounds. Resolved proteins were electrotransferred for immunodetection using phosphorylated ERK-specific antibody.
(§6) (A) CHO cells expressing MT1 or MT2 were treated with the indicated concentrations of 7e or luzindole in the absence or presence of a fixed concentration of melatonin (MLT) (for both MT1 or MT2) or 7b (for MT2 only). Other experimental details were as to the legend of Figure 5. Data shown were representative blots of three separate trials. (B) CHO cells expressing MT2 were treated with increasing concentrations (1 ρM – 1 µM) of melatonin in the absence or presence of 10 µM or 1 µM of 7e or 7f. Other experimental details were as to the legend of Figure 4.
(§7) 2×10^5 cells were seeded into each well of 12-well plates for overnight before serum withdrawal for 4 h to reduce the basal ERK phosphorylation. Tested compounds were diluted in serum-free culture medium at desired concentrations and treated the cells for 5 min. Reactions was stopped by aspiration and then adding 150 µl of lysis buffer with protease inhibitors (50 mM Tris–HCl, pH 7.5, 100 mM NaCl, 5 mM EDTA, 40 mM NaP2O7, 1% Triton X-100, 1 mM dithiothreitol, 200 µM Na3VO4, 100 µM phenylmethylsulfonyl fluoride, 2 µg/ml leupeptin, 4 µg/ml aprotinin, and 0.7 µg/ml pepstain). Cells were allowed to lyse for 30 min at 4°C with agitation, and the collected total cell lysates were cleared by centrifugation. Protein samples were resolved in SDS-PAGE and transferred to nitrocellulose membranes using iBlot system (Invitrogen). Phosphorylated ERK was detected using specific antibodies as described previously. Chemiluminescence signals on the blots were detected on X-ray films.

[9] = target: T2, MT1; conditions: 1 nM [3H]melatonin, intact CHO cells, 4°C 60 min; mean ± SEM of 3–5 trials; NSB = no specific binding for up to 30 µM
Experimental: as §8, §9, §10

[10] = target: T1, MT2; experiment: Immunodetection of ERK phosphorylation in MT2-CHO cells; assay type: cell-based; set-up: expressed in transfected cells; conditions: for suppression of melatonin-induced ERK phosphorylation in MT2-CHO cells (antagonism): 1 nM melatonin (MLT), 7e and 7f at 10 µM; for suppression of 7b-induced ERK phosphorylation in MT2-CHO cells (antagonism): agonist 7b 100 nM, 7e at 10 µM; for ERK phosphorylation in MT2-CHO cells (in words): immunoblot
Experimental: as §5, §6, §7

[11] = calculated from mean pEC50, NSR = no significant response for up to 30 µM, read-out: MT2 EC50, Ca2+ mobilization
[12] = calculated from mean pEC50, NSR = no significant response for up to 30 µM
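Wherever MT1 pIC50±SEM is given: competitive radioligand displacement on intact CHO cells stably co-expressing human MT1 together with the G protein chimera 16z25, using rising concentrations of each compound.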
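Wherever Selectivity, ratio Ki(MT1)/Ki(MT2) is given: competition binding on intact CHO cells stably co-expressing human MT2 with G protein chimera 16z25, displacing [3H]melatonin at 4°C over 60 min, melatonin run as reference.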
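Wherever displacement of pre-incubated [3H]melatonin at MT2 (in words) is given: competition binding on intact CHO cells stably co-expressing human MT2 with G protein chimera 16z25, displacing [3H]melatonin at 4°C over 60 min, melatonin run as reference.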

In the case of `COc1cccc(COc2cc3ccn(C)c(=O)c3cc2OC)c1` [7b, 7-Methoxy-6-(3-methoxy-benzyloxy)-2-methylisoquinolin-1(2H)-one], the melting point is reported as 85 to 87 °C, the “Selectivity, ratio Ki(MT1)/Ki(MT2)” value [1] is reported as 139 and the “displacement of pre-incubated [3H]melatonin at MT2 (in words)” value ([1]; competitive binding, intact CHO cells) is reported as “completely displaced”. It also gave an IC50 [2] of 16200 nM, a Ki [2] of 3700 nM and an Emax [2] of 90 ± 8%. For the same compound, the IC50 [3] was 89.1 nM, the Ki [3] was 26.6 nM and the Emax [3] was 92 ± 4%. The EC50 [4] was 31.1 nM, the “MT1 %Resp ±SEM, Ca2+ signal” value [4] was 63±7% and the EC50 [5, 11] was 0.3 nM. For the same compound, the EC50 ([5]; mean ± SEM of 3–5 trials, read-out: MT2 pEC50 ±SEM, Ca2+ mobilization (converted)) was 0.288 nM, the Emax [5] was 92 ± 11% and the “inhibition of cAMP levels in MT1-CHO cells (in words)” value ([6]; forskolin-stimulated) was “observable inhibition”. The “MT1 %Inhmax ±SEM” value ([6]; maximal percentage inhibition of the forskolin-elevated cAMP level, MT1-CHO) was 69±8%, the IC50 ([6]; read-out: MT1 IC50, inhibition of cAMP production) was 1200 nM and the IC50 ([7]; mean ± SEM of 2 trials, read-out: MT2 pIC50 ±SEM, inhibition of cAMP production (converted)) was 63.1 nM. For the same compound, the “MT2 %Inhmax ±SEM” value ([7]; maximal percentage inhibition of the forskolin-elevated cAMP level, MT2-CHO) was 70±3% and the “concentration inducing weak ERK phosphorylation in MT1-CHO cells” value [8] was greater than 1 µM.
In the case of `COc1cc(COc2cc3ccn(C)c(=O)c3cc2OC)cc(OC)c1` [7c, 6-(3,5-Dimethoxy-benzyloxy)-7-methoxy-2-methylisoquinolin-1(2H)-one], the “Selectivity, ratio Ki(MT1)/Ki(MT2)” value [1] is reported as 37.6, the IC50 [2] is reported as 57500 nM and the Ki [2] is reported as 13100 nM. For the same compound, the Emax [2] was 41 ± 9%, the IC50 [3] was 1170 nM and the Ki [3] was 350 nM. The Emax [3] was 73 ± 9%, the EC50 [4] was 266 nM and the “MT1 %Resp ±SEM, Ca2+ signal” value [4] was 65±10%. The EC50 [5, 11] was 21 nM, the Emax [5] was 90 ± 16% and the “concentration to induce exclusive MT2 activation (Ca2+ signal)” value ([5]; from concentration response curves, Figure 4) was less than 10 nM. For the same compound, the “fold less potent than 7b (EC50, Ca2+ signal, MT2)” value ([5]; relative to 7b, MT2-CHO) was roughly 70 fold, the “MT1 IC50, inhibition of cAMP production” value ([6]; MT1-CHO cells, 50 µM forskolin, calculated from mean pIC50, NSR = no significant response for up to 10 µM) was “NSR ^b” and the IC50 ([7]; calculated from mean pIC50, read-out: MT2 IC50, inhibition of cAMP production) was 2460 nM. The “MT2 %Inhmax ±SEM, extrapolated” value ([7]; extrapolated %Inhmax from non-linear regression, MT2-CHO) was 72±3 ^c % and the “concentration inducing weak ERK phosphorylation in MT1-CHO cells” value [8] was greater than 1 µM.
With `COc1ccc(COc2cc3ccn(C)c(=O)c3cc2OC)cc1` [7e, 7-Methoxy-6-(4-methoxy-benzyloxy)-2-methylisoquinolin-1(2H)-one] the melting point was 170 to 172 °C, the “MT1 pIC50±SEM” value [9] was “NSB” and the IC50 [3] was 1120 nM. For the same compound, the Ki [3] was 334 nM, the Emax [3] was 47 ± 5% and the “Ca2+ mobilization activity at MT2 (in words)” value (“Ca2+ mobilization activity” below) [5] was “null response”. The “MT2 EC50, Ca2+ mobilization” value [5, 12] was “NSR”, the “shift of melatonin dose-response curve in FLIPR assay, MT2-CHO (competitive antagonism)” value [5] was “parallel right shift” and the “suppression of melatonin-induced ERK phosphorylation in MT2-CHO cells (antagonism)” value [10] was “reduced to almost the basal level”. For the same compound, the “suppression of 7b-induced ERK phosphorylation in MT2-CHO cells (antagonism)” value [10] was “significantly suppressed”.
In the case of `COc1cc2c(=O)n(C)ccc2cc1OCc1ccc(C)cc1` [7f, 7-Methoxy-2-methyl-6-(4-methyl-benzyloxy)-isoquinolin-1(2H)-one], the melting point is reported as 120 to 122 °C, the “Selectivity, ratio Ki(MT1)/Ki(MT2)” value [1] is reported as 6.13 and the IC50 [2] is reported as 8910 nM. It also gave a Ki [2] of 2040 nM, an Emax [2] of 38 ± 10% and an IC50 [3] of 1100 nM. The Ki [3] was 333 nM, the Emax [3] was 70 ± 6% and the “MT2 EC50, Ca2+ mobilization” value [5, 12] was “NSR”. The “shift of melatonin dose-response curve in FLIPR assay, MT2-CHO (competitive antagonism)” value [5] was “parallel right shift” and the “suppression of melatonin-induced ERK phosphorylation in MT2-CHO cells (antagonism)” value [10] was “partial inhibition”.
In the case of `COc1cc2ccn(C)c(=O)c2cc1OCc1ccccc1` [14a, 7-Benzyloxy-6-methoxy-2-methylisoquinolin-1(2H)-one], the melting point is reported as 132 to 134 °C, the “MT1 pIC50±SEM” value [9] is reported as “NSB” and the IC50 [3] is reported as 14800 nM. For the same compound, the Ki [3] was 4460 nM, the Emax [3] was 78 ± 8% and the “Ca2+ mobilization activity” value [5] was “basically inactive”. The “MT2 EC50, Ca2+ mobilization” value [5, 12] was “NSR” and the “ERK phosphorylation in MT2-CHO cells (in words)” value [10] was “essentially inactive”.
With `COc1cc2ccn(C)c(=O)c2cc1OCc1ccc(C)cc1` [14d, 6-Methoxy-2-methyl-7-(4-methyl-benzyloxy)-isoquinolin-1(2H)-one] the melting point was 150 to 152 °C, the “MT1 pIC50±SEM” value [9] was “NSB” and the IC50 [3] was 13800 nM. For the same compound, the Ki [3] was 4150 nM, the Emax [3] was 73 ± 10% and the “Ca2+ mobilization activity” value [5] was “basically inactive”. For the same compound, the “MT2 EC50, Ca2+ mobilization” value [5, 12] was “NSR” and the “ERK phosphorylation in MT2-CHO cells (in words)” value [10] was “essentially inactive”.
With `CC(=O)NCCc1c(Cc2ccccc2)[nH]c2ccccc12` [luzindole, reference compound] the Ki [2] was 102 nM, the Ki [3] was 2.9 nM and the “Ca2+ mobilization activity” value [5] was “weak but significant MT2-selective agonistic activity”. For the same compound, the “suppression of melatonin-induced ERK phosphorylation in MT1-CHO cells (antagonism)” value ([8]; 1 nM melatonin (MLT)) was “blocked”, the “effect on basal ERK phosphorylation in MT1-CHO cells” value ([8]; at 1 µM) was “completely eliminated basal ERK phosphorylation” and the “suppression of melatonin-induced ERK phosphorylation in MT2-CHO cells (antagonism)” value [10] was “blocked”. For the same compound, the “suppression of 7b-induced ERK phosphorylation in MT2-CHO cells (antagonism)” value [10] was “blocked” and the “effect on basal ERK phosphorylation in MT2-CHO cells” value ([10]; luzindole alone) was “constantly enhanced”.
